Experiment [1] addresses Histone deacetylase 4 (Homo sapiens) (UniProt P56524). Briefly: Inhibition of HDAC4 (unknown origin) assessed as residual activity at 3.70 x 10^-7M (reference value: 98.90%). The settings on record: dose 3.7 10^-7M.
The target of experiment [2] is T1, Protein deacetylase HDAC6 (Homo sapiens) (UniProt Q9UBN7).
T1 sequence (whole entry): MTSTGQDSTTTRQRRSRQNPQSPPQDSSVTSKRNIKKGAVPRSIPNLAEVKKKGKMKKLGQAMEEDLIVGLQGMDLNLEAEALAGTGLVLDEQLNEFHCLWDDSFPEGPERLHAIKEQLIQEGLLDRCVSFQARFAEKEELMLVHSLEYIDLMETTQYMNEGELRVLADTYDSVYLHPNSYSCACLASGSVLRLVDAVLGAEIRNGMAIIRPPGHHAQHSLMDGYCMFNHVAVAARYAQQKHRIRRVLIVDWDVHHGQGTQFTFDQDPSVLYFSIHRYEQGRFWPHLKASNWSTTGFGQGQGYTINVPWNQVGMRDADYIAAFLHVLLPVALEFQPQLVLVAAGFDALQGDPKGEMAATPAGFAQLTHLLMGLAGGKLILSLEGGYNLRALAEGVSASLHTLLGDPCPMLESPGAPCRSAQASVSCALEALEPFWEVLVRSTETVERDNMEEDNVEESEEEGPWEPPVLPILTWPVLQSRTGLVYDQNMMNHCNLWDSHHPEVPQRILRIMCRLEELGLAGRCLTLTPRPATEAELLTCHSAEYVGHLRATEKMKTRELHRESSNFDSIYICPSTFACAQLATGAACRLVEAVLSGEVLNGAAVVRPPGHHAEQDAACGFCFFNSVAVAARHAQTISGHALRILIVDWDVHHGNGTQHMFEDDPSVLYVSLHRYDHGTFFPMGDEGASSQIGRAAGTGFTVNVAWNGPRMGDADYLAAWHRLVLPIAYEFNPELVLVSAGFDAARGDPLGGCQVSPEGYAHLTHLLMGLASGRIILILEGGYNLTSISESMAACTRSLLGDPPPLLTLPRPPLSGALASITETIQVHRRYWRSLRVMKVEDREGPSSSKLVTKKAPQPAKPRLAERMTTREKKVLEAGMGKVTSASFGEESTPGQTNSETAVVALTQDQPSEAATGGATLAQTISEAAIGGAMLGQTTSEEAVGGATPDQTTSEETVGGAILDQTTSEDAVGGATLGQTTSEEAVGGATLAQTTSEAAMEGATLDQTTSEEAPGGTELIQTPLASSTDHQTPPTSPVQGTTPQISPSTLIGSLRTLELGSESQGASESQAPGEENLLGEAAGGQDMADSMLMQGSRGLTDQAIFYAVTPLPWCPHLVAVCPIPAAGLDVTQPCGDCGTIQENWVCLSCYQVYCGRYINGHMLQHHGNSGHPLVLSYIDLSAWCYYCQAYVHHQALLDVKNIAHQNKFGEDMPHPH
Kind of experiment: Inhibition of HDAC6 (unknown origin) using p53 residues 379 to 382 [RHKK(Ac)] as fluorogenic substrate assessed as residual activity at 4.57 x 10^-9M (reference value: 101.06%). The settings on record: dose 4.57 10^-9M.

The target in experiment [3] is Histone deacetylase 9 (Homo sapiens) (UniProt Q9UKV0). Kind of experiment: Inhibition of HDAC9 (unknown origin) assessed as residual activity at 4.12 x 10^-8M (reference value: 97.55%). Conditions: dose 4.12 10^-8M.
Sequence of Histone deacetylase 9 (Homo sapiens) (Q9UKV0 whole entry): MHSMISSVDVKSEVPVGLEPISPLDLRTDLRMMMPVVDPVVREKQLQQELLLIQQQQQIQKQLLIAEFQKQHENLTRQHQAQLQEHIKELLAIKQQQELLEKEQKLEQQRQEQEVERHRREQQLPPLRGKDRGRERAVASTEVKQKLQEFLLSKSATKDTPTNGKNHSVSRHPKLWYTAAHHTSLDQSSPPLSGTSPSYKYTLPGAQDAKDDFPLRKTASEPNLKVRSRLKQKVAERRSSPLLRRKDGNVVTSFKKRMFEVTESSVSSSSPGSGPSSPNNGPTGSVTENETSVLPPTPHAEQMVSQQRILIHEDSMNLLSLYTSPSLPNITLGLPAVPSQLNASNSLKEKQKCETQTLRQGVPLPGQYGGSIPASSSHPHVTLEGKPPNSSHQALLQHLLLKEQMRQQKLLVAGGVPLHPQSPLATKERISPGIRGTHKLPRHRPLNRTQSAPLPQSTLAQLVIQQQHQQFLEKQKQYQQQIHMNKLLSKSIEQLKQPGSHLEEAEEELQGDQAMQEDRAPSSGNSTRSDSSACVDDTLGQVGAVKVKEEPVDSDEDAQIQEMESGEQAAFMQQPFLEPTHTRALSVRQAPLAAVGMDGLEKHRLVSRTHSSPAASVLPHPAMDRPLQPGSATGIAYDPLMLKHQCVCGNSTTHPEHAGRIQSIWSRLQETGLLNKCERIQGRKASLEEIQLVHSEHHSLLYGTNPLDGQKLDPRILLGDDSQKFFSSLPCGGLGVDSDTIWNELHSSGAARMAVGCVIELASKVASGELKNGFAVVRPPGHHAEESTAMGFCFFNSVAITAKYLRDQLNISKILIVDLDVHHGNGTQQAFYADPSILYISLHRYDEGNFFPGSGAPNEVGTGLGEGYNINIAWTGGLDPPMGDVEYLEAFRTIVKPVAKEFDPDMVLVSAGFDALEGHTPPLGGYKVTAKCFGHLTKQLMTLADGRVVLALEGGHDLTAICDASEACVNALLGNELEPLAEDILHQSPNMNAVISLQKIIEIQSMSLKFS
Experiment [4] has as its target T2, Polyamine deacetylase HDAC10 (Homo sapiens) (UniProt Q969S8).
T2 sequence (whole entry): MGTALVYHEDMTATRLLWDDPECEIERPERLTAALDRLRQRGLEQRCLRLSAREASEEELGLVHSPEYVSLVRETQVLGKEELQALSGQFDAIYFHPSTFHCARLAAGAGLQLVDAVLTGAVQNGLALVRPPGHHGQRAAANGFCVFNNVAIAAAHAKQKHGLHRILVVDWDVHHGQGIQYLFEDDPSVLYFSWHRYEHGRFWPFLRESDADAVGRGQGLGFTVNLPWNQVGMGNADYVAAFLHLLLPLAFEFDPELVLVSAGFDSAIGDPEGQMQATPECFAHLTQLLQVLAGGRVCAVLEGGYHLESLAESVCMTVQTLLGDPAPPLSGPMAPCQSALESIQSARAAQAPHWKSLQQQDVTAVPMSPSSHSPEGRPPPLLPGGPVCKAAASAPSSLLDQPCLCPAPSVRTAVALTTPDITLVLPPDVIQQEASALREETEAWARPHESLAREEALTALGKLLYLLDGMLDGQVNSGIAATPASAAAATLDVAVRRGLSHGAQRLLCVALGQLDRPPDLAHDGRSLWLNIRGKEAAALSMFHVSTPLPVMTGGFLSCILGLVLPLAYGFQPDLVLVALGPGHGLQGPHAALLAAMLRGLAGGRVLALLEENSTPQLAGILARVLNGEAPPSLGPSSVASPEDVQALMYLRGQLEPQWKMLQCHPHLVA
Briefly: Inhibition of HDAC10 (unknown origin) assessed as residual activity at 3.33 x 10^-6M (reference value: 101.54%). The settings on record: dose 3.33 10^-6M.

The test system of the next experiment is HL-60. Kind of experiment: Downregulation of HDAC2 protein expression in human HL-60 cells by Western blot analysis. Format: functional, cell-based. Conditions: dose 0.2-5 µM.

One compound from ChEMBL document CHEMBL5550160, “Leveraging a rationally designed veliparib-based anilide eliciting anti-leukemic effects for the design of pH-responsive polymer nanoformulation” (Eur J Med Chem, 2024) can be followed below.

Sequence of Histone deacetylase 4 (Homo sapiens) (P56524 whole entry): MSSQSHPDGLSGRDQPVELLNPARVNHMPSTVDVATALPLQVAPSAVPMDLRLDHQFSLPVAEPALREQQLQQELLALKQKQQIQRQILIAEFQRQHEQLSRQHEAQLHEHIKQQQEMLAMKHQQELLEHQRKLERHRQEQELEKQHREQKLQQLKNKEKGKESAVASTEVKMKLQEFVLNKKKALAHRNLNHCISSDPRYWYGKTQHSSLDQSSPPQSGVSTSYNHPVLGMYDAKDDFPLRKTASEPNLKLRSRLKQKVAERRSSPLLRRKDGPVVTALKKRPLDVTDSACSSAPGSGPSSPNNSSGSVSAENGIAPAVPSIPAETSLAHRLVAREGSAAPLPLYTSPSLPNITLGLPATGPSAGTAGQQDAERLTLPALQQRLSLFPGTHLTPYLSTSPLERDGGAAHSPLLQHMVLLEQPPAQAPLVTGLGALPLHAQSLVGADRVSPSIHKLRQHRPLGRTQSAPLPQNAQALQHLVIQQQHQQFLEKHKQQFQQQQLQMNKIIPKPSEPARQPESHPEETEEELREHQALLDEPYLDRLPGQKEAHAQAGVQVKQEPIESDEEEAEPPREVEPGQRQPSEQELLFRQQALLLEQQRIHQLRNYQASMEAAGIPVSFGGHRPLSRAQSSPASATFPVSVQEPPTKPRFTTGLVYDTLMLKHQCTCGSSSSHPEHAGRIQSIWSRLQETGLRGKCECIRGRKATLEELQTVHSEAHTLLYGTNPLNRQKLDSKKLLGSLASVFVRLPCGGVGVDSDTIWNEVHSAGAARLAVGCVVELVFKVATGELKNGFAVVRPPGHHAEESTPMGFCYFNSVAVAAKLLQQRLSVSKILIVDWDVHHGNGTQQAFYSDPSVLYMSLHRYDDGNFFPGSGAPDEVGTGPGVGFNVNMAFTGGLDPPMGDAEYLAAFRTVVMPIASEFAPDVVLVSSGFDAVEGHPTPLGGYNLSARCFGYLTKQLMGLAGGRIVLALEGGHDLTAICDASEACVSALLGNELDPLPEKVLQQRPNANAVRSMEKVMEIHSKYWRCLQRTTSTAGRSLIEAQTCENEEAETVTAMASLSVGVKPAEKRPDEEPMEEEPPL

Regarding `NC(=O)c1cccc2[nH]c(-c3ccc(NCc4ccc(C(=O)Nc5ccccc5N)cc4)cc3)nc12`, the Activity is 108% in experiment [1]; 103% in experiment [2]; 102% in experiment [3]; 101% in experiment [4]; “Dose-Dependent Effect” in the experiment on HL-60.
